Laboratory results: ChEMBL document CHEMBL1201862, “PubChem BioAssay data set” (2004)
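Protocol summary: plate cells (96-well), add compound at 5 concentrations, incubate 48 h, interpolate endpoints linearly. GI50 is the concentration that inhibits growth by half.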 Active and inactive are the calls of the source. No stated cut-off is given here; in the data, active = GI50 up to about 1.1 µM and inactive = higher.

Tests used:
Assay in all cases: DTP human tumour cell line panel, 48 h
SNB-78 = system: SNB-78
DLD-1 = system: DLD-1
DMS-273 = system: DMS-273
LXFL 529 = system: LXFL 529
DMS-114 = system: DMS-114
XF498 = system: XF498
HOP-18 = system: HOP-18
RXF 631 = system: RXF 631
M19-MEL = system: M19-MEL

Measured: GI50

O=c1[nH]c(=O)n(C2OC(CO)C(O)C2O)cc1OCc1ccccc1 (stereo not drawn)
inactive: SNB-78 > 100 µM | DLD-1 > 59.8 µM | DMS-273 > 75.9 µM | LXFL 529 > 80.4 µM | DMS-114 > 57.9 µM | XF498 > 100 µM | HOP-18 > 100 µM | RXF 631 > 100 µM | M19-MEL > 95.5 µM

COc1cc2c(cc1OC)CC(=O)Nc1cc(OC)c(OC)cc1CC2
inactive: SNB-78 > 95.5 µM | DLD-1 40.3 µM | DMS-273 24.8 µM | LXFL 529 > 73.3 µM | DMS-114 24.3 µM | XF498 > 100 µM | HOP-18 > 100 µM | RXF 631 > 75.9 µM | M19-MEL 31.8 µM
